What was measured:
in vitro [1] = details: human, MT4 cells
in vitro [2] = details: human, Huh-7 cells
in vitro [3] = details: human, HEp-2 cells
Hepatitis C virus = assay: microbe, parasite or virus in culture; details: subtype 1b, Huh-7, 72 h
Human orthopneumovirus [4] = assay: microbe, parasite or virus in culture; details: human respiratory syncytial virus, A2, HEp-2, 96 h
in vitro [5] = details: human, Caco-2
in vitro [6] = details: human, Caco-2; remark: listed apart in the source
in vivo [7] = details: Sprague-Dawley, rat, po, 8 mg/kg
in vivo [8] = details: cynomolgus monkey, po, 20 mg/kg
in vitro [9] = details: human, HEp-2 cells; remark: listed apart in the source
[10] = test system: Respiratory syncytial virus; assay: microbe, parasite or virus in culture; details: human respiratory syncytial virus, Primary bronchial epithelial cell, 72 h
in vivo [11] = details: cynomolgus monkey, iv, 20 mg/kg
in vivo [12] = details: dog, po
cells [13] = details: Homo sapiens, Primary bronchial epithelial cell, 48 h
cells [14] = details: Homo sapiens, HEp-2, 48 h
in vivo [15] = details: cynomolgus monkey, iv, 20 mg/kg; remark: listed apart in the source
in vivo [16] = details: cynomolgus monkey, iv, 10 mg/kg
in vivo [17] = details: cynomolgus monkey, iv, 10 mg/kg; remark: listed apart in the source
in vivo [18] = details: cynomolgus monkey, iv, 10 mg/kg; remark: listed apart in the source
in vivo [19] = details: chlorocebus sabaeus, iv, 10 mg/kg
in vivo [20] = details: chlorocebus sabaeus, iv, 10 mg/kg; remark: listed apart in the source
clinical [21] = details: human, in vivo, iv, 75 mg
in vivo [22] = details: chlorocebus sabaeus, iv, 10 mg/kg; remark: listed apart in the source
in vivo [23] = details: chlorocebus sabaeus, iv, 10 mg/kg; remark: listed apart in the source
in vivo [24] = details: cynomolgus monkey, iv, 10 mg/kg; remark: listed apart in the source
[25] = test system: Respiratory syncytial virus; details: primary bronchial epithelial cell
in vivo [26] = details: chlorocebus sabaeus, iv, 10 mg/kg; remark: listed apart in the source
Human orthopneumovirus [27] = details: hep-2
in vivo [28] = details: cynomolgus monkey, iv, 10 mg/kg; remark: listed apart in the source
clinical [29] = details: human, in vivo, iv, 75 mg; remark: listed apart in the source

Structure (SMILES)	CC50 (in vitro [3]) [nM]	EC50 (Human orthopneumovirus [4]) [nM]	selectivity ratio (in vitro [9]; Ratio CC50/EC50)	EC50 [10] [nM]	further results
C[C@@]1(O)[C@H](O)[C@@H](CO)O[C@@]1(C#N)c1ccc2c(N)ncnn12	> 100000	> 100000	–	–	CC50 at 120 h (in vitro [1]): > 200000 nM; CC50 at 72 h (in vitro [2]): > 89000 nM; EC50 (Hepatitis C virus): > 89000 nM
CC(C)[C@H](N)C(=O)OC[C@H]1O[C@@](C#N)(c2ccc3c(N)ncnn23)[C@H](O)[C@@H]1O	> 100000	1110	–	–	Papp B→A (in vitro [5]): 0.45 ×10⁻⁶ cm/s; Papp A→B (in vitro [6]): 0.55 ×10⁻⁶ cm/s
C[C@@]1(c2ccc3c(N)ncnn23)O[C@H](CO)[C@@H](O)[C@H]1O	–	5500	–	–	CC50 at 120 h (in vitro [1]): 4500 nM; CC50 at 72 h (in vitro [2]): > 45000 nM
CC(C)C(=O)OC[C@H]1O[C@@](C#N)(c2ccc3c(N)ncnn23)[C@H](OC(=O)C(C)C)[C@@H]1OC(=O)C(C)C	81000	260	–	–	Papp B→A (in vitro [5]): 1.5 ×10⁻⁶ cm/s; bioavailability (in vivo [7]): 57%; bioavailability (in vivo [8]): 28%
C#C[C@@]1(c2ccc3c(N)ncnn23)O[C@H](CO)[C@@H](O)[C@H]1O	> 100000	34000	–	–	CC50 at 120 h (in vitro [1]): > 50000 nM; CC50 at 72 h (in vitro [2]): > 89000 nM; EC50 (Hepatitis C virus): > 89000 nM
CCOC(=O)[C@H](C)NP(=O)(OC[C@H]1O[C@@](C#N)(c2ccc3c(N)ncnn23)[C@H](O)[C@@H]1O)Oc1ccccc1 (some centres not stated)	> 73000	300	> 243	850	–
CC(C)OC(=O)[C@H](C)NP(=O)(OC[C@H]1O[C@@](C#N)(c2ccc3c(N)ncnn23)[C@H](O)[C@@H]1O)Oc1ccccc1 (some centres not stated)	> 100000	360	> 277	2500	–
Nc1ncnn2c([C@@H]3O[C@H](CO)[C@@H](O)[C@H]3O)ccc12	36	> 50000	–	–	CC50 at 120 h (in vitro [1]): < 10 nM; EC50 (Hepatitis C virus): 3.5 nM
CC(=O)OC[C@H]1O[C@@](C#N)(c2ccc3c(N)ncnn23)[C@H](OC(C)=O)[C@@H]1OC(C)=O	> 100000	820	–	–	Papp B→A (in vitro [5]): 1.9 ×10⁻⁶ cm/s; Papp A→B (in vitro [6]): 0.9 ×10⁻⁶ cm/s
C[C@H](NP(=O)(OC[C@H]1O[C@@](C#N)(c2ccc3c(N)ncnn23)[C@H](O)[C@@H]1O)Oc1ccccc1)C(=O)OC1CCC1 (some centres not stated)	34000	75	453	420	–
C[C@H](NP(=O)(OC[C@H]1O[C@@](C#N)(c2ccc3c(N)ncnn23)[C@H](O)[C@@H]1O)Oc1ccccc1)C(=O)OCC1CCC1 (some centres not stated)	23000	24	–	130	selectivity ratio (in vitro [9]): 958
C[C@H](NP(=O)(OC[C@H]1O[C@@](C#N)(c2ccc3c(N)ncnn23)[C@H](O)[C@@H]1O)Oc1ccccc1)C(=O)OCC(C)(C)C (some centres not stated)	11000	50	220	530	–
CC(C)(C)C(=O)SCCOP(=O)(OCCSC(=O)C(C)(C)C)OC[C@H]1O[C@@](C#N)(c2ccc3c(N)ncnn23)[C@H](O)[C@@H]1O	8700	150	–	–	selectivity ratio (in vitro [9]): 58
CCOC(=O)[C@H](C)NP(=O)(N[C@@H](C)C(=O)OCC)OC[C@H]1O[C@@](C#N)(c2ccc3c(N)ncnn23)[C@H](O)[C@@H]1O	> 100000	6480	> 15	–	–
N#C[C@@]1(c2ccc3c(N)ncnn23)O[C@H](CO)[C@@H](O)[C@H]1O [GS-441524]	> 100000	530	–	1850	CC50 at 120 h (in vitro [1]): > 50000 nM; AUC(0-inf) at 0.5 h (in vivo [11]): 123 µM·h; bioavailability (in vivo [12]): 89%; Papp B→A (in vitro [5]): 2.1 ×10⁻⁶ cm/s; IC50 (cells [13]): 220 nM; CC50 at 72 h (in vitro [2]): > 89000 nM; bioavailability (in vivo [7]): 12%; bioavailability (in vivo [8]): 3.4%; IC50 (cells [14]): 350 nM; Cmax at 0.5 h (in vivo [15]): 79.2 µM; Papp A→B (in vitro [6]): 0.17 ×10⁻⁶ cm/s
CCC(CC)COC(=O)[C@H](C)N[P@](=O)(OC[C@H]1O[C@@](C#N)(c2ccc3c(N)ncnn23)[C@H](O)[C@@H]1O)Oc1ccccc1 (stereo in doubt; 18j)	–	27	–	69	–
C[C@H](NP(=O)(OC[C@H]1O[C@@](C#N)(c2ccc3c(N)ncnn23)[C@H](O)[C@@H]1O)Oc1ccccc1)C(=O)OC1CCCC1 (some centres not stated)	> 80000	170	471	350	–
CCC(CC)COC(=O)[C@H](C)N[P@@](=O)(OC[C@H]1O[C@@](C#N)(c2ccc3c(N)ncnn23)[C@H](O)[C@@H]1O)Oc1ccccc1	26000	28	–	65	–
CCC(CC)OC(=O)[C@H](C)NP(=O)(OC[C@H]1O[C@@](C#N)(c2ccc3c(N)ncnn23)[C@H](O)[C@@H]1O)Oc1ccccc1 (some centres not stated)	> 100000	310	323	> 5000	–
CCC(=O)OC[C@H]1O[C@@](C#N)(c2ccc3c(N)ncnn23)[C@H](OC(=O)CC)[C@@H]1OC(=O)CC	> 100000	430	–	–	Papp B→A (in vitro [5]): 0.26 ×10⁻⁶ cm/s; Papp A→B (in vitro [6]): < 0.1 ×10⁻⁶ cm/s
C[C@H](NP(=O)(OC[C@H]1O[C@@](C#N)(c2ccc3c(N)ncnn23)[C@H](O)[C@@H]1O)Oc1ccccc1)C(=O)OC(C)(C)C (some centres not stated)	> 100000	4500	> 22	> 5000	–
C[C@H](NP(=O)(OC[C@H]1O[C@@](C#N)(c2ccc3c(N)ncnn23)[C@H](O)[C@@H]1O)Oc1ccccc1)C(=O)OC1CCCCCCC1 (some centres not stated)	48000	28	–	–	selectivity ratio (in vitro [9]): 1710
C#C[C@@]1(c2ccc3c(N)ncnn23)O[C@H](COP(=O)(N[C@@H](C)C(=O)OCC(CC)CC)Oc2ccccc2)[C@@H](O)[C@H]1O (some centres not stated)	> 100000	750	> 133	–	–
CCC(CC)COC(=O)[C@H](C)N[P@](=O)(OC[C@H]1O[C@@](C#N)(c2ccc3c(N)ncnn23)[C@H](O)[C@@H]1O)Oc1ccccc1 (stereo in doubt)	–	–	–	–	half-life at 0.5 h (in vivo [16]): 24 min; AUC(0-inf) at 0.5 h (in vivo [17]): 8.8 µM·h; Vd at 0.5 h (in vivo [18]): 0.45 L/kg; IC50 (cells [13]): 140 nM; half-life at 0.5 h (in vivo [19]): 48 min; AUC(0-inf) at 0.5 h (in vivo [20]): 7.9 µM·h; bioavailability (in vivo [8]): < 1%; Cmax at 1 h (clinical [21]): < 1 µM; Cmax at 0.5 h (in vivo [22]): 12.6 µM; clearance at 0.5 h (in vivo [23]): 35.5 mL/min/kg; Cmax at 0.5 h (in vivo [24]): 22.7 µM; EC50 [25]: 49 nM; IC50 (cells [14]): 110 nM; Vd at 0.5 h (in vivo [26]): 0.94 L/kg; EC50 (Human orthopneumovirus [27]): 15 nM; clearance at 0.5 h (in vivo [28]): 32 mL/min/kg; Cmax at 0.5 h (clinical [29]): 5 µM
CCC(CC)COC(=O)[C@H](C)NP(=O)(N[C@@H](C)C(=O)OCC(CC)CC)OC[C@H]1O[C@@](C#N)(c2ccc3c(N)ncnn23)[C@H](O)[C@@H]1O	36000	310	–	170	selectivity ratio (in vitro [9]): 116
C[C@H](NP(=O)(OC[C@H]1O[C@@](C#N)(c2ccc3c(N)ncnn23)[C@H](O)[C@@H]1O)Oc1ccccc1)C(=O)OCC1CC1 (some centres not stated)	50000	44	–	620	selectivity ratio (in vitro [9]): 1140

— ChEMBL document CHEMBL4823256 (J Med Chem, 2021)
